Measured values published in the NIST ThermoML archive (doi:10.1016/j.jct.2008.07.009).
± gives the expanded uncertainty stated by the source.

Conditions: 101.33 kPa, Liquid, Vibrating tube method

Row | SMILES | mass density (293.15 K) | mass density (303.15 K) | mass density (313.15 K) | mass density (323.15 K) | mass density (333.15 K) | mass density (343.15 K)
1 | CCc1ccccc1 [ethylbenzene] | 867.2 ± 6 kg/m3 | 858.3 ± 6 kg/m3 | 849.3 ± 6 kg/m3 | 840.3 ± 6 kg/m3 | 831.2 ± 6 kg/m3 | 822.1 ± 6 kg/m3
2 | c1ccccc1 [benzene] | 878.9 ± 6 kg/m3 | 868.2 ± 6 kg/m3 | 857.4 ± 6 kg/m3 | 846.5 ± 6 kg/m3 | 835.7 ± 6 kg/m3 | 824.7 ± 6 kg/m3
3 | Cc1ccccc1 [toluene] | 866.8 ± 6 kg/m3 | 857.5 ± 6 kg/m3 | 848.8 ± 6 kg/m3 | 838.9 ± 6 kg/m3 | 829.6 ± 6 kg/m3 | 820.2 ± 6 kg/m3
4 | Cc1cc(C)cc(C)c1 [1,3,5-trimethylbenzene] | 865.1 ± 6 kg/m3 | 856.9 ± 6 kg/m3 | 842.8 ± 6 kg/m3 | 834.7 ± 6 kg/m3 | 826.6 ± 6 kg/m3 | 818.5 ± 6 kg/m3
5 | CC(=O)N1CCOCC1 [4-acetylmorpholine] | 1113.8 ± 6.1 kg/m3 | 1105.9 ± 6.1 kg/m3 | 1097.3 ± 6.1 kg/m3 | 1088.7 ± 6.1 kg/m3 | 1080.1 ± 6.1 kg/m3 | 1071.5 ± 6.1 kg/m3
